Among the data in patent publication US10081634B2, “Heterocyclic compound” (Daewoong Pharmaceutical Co., Ltd., priority 2014, dated 2018) are IC50 values, retold here.

For assay [1], the target named is T1, PRS (prolyl-tRNA synthetase) (Homo sapiens, UniProt P07814).
T1 construct: the portion corresponding to PRS in cDNA of EPRS was subcloned; made in house
T1 sequence (P07814 1007-1512 limits assumed): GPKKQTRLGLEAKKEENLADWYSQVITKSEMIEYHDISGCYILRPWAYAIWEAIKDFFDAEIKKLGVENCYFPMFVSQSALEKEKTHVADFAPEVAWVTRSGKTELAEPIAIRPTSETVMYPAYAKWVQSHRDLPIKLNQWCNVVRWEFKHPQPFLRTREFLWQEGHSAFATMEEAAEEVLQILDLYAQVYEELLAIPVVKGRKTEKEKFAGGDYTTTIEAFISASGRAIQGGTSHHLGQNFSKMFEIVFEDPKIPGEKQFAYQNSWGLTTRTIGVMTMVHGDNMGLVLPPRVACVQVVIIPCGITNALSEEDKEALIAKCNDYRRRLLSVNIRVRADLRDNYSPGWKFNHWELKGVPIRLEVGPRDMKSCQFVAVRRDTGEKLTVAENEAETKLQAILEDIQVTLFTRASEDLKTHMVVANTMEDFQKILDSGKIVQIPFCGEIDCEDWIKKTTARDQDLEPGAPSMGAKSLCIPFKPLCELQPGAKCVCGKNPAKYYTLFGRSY
In words: In vitro PRS enzyme activity inhibition experiment ([3H]proline, liquid scintillation). In kind it is biochemical. The settings on record: purified PRS protein subcloned from EPRS cDNA; 37° C., 5 to 10 minutes; read-out: PRS IC50. As to the method: In order to confirm the biological activities of the compounds prepared in Examples, % inhibition or IC50 values of PRS enzyme ([…]) activities were calculated.
Specifically, the portion corresponding to PRS in cDNA of EPRS was subcloned, and the obtained high-purity PRS protein was purified and used in the experiment. The compounds (1 μM) prepared in Examples were added into the reaction buffer (20 mM KPO4 (pH 7.4), 6 mM MgAc, 5 mM ATP, […] tRNA, 0.5 mM DTT, 20 mCi[^3H]proline (1 mCi/mL)) and allowed to react at 37° C. for 5 to 10 minutes. The reaction was terminated with 3M paper that was previously dried by addition of 5% TCA. The radioactivity was measured using a liquid scintillation counter.
IC50 values of the respective compounds were calculated and analyzed using Microsoft Excel or Sigma Plot 8.0. In Table 1, the results are divided into A, B and C according to the range of IC50. The case where the derived IC50 is 100 nM or less is represented by “A”, the case where the IC50 is 100 to 500 nM is represented by “B”, and the case where the IC50 is 500 nM or higher is represented by “C”.

The next assay has as its system NCI-H460 cells. In words: Cancer cell growth inhibition experiment (MTT assay). Type of assay: cell-based. The settings on record: Homo sapiens; NCI-H460 lung cancer cell line; 48 hours treatment; MTT cell viability. As to the method: NCI-H460 cells, lung cancer cell lines, were cultured in 5% CO2, 37° C. incubator using a flask for 75 cm^2 tissue culture. 96-well plates were used for the evaluation. These were prepared by differently applying at concentrations in the range of 6,000 to 12,000 cells/well according to the growth rate of the cell lines. The medium containing 5% FBS were dispensed in 200 μL/well and used. The medium were cultured for 24 hours. After confirming the cell status and dispensing form of a 96-well plate under a microscope, they were used for subsequent experiments. The compounds were evaluated at concentrations of 100, 30, 10, 3, 1, 0.3, 0.03, 0.01 μM. After removing the existing medium, the compounds with various concentrations were treated in an amount of 200 μL/well. The compounds-treated plates were further cultured for 48 hours, and the cell viabilities were measured by MTT assay to calculate IC50 values.
% Inhibition and IC50 values of the respective compounds were calculated and analyzed using Sigma Plot 8.0. The case where the derived IC50 is 5 μM or less is represented by “A”, the case where the IC50 is 5 to 30 μM is represented by “B”, and the case where the IC50 is 30 μM or higher is represented by “C”.
On the technique in general: Formazan colour is commonly taken as a measure of viable cells.

Structures are written as SMILES. Where only a bound is given, the exact number is not on record here.

For orientation: IC50 means the concentration at which inhibition is half-maximal.

Take `OCc1nc2cc(Cl)c(Cl)cc2n1CC(O)C[C@H]1NCCC[C@@H]1O` (stereo partly drawn) [Example 88, (2R,3S)-2-(3-(5,6-dichloro-2-(hydroxymethyl)-1H-benzo[d]imidazol-1-yl)-2-hydroxypropyl)piperidin-3-ol]: the IC50 in assay [1] is 0.1 to 0.5 µM; in the assay with NCI-H460 cells, at least 30 µM.

With `Cc1c(F)ccc2c1ncn2CC(=O)C[C@H]1NCCC[C@@H]1O` [Example 13, 1-(5-fluoro-4-methyl-1H-benzo[d]imidazol-1-yl)-3-((2R,3S)-3-hydroxypiperidin-2-yl)propan-2-one], the IC50 in assay [1] is below 0.1 µM; with NCI-H460 cells it was at most 5 µM.

For `O=C(C[C@H]1NCCC[C@@H]1O)Cn1cnc2cc(F)c(F)cc21` [Example 10, 1-(5,6-difluoro-1H-benzo[d]imidazol-1-yl)-3-((2R,3S)-3-hydroxypiperidin-2-yl)propan-2-one], the IC50 lay in the range of 0.1 to 0.5 µM in assay [1] and 5 to 30 µM in the assay on NCI-H460 cells.

In the case of `O=C(C[C@H]1NCCC[C@@H]1O)Cn1cnc2cc(Br)c(Br)cc21` [Example 27, 1-(5,6-dibromo-1H-benzo[d]imidazol-1-yl)-3-((2R,3S)-3-hydroxypiperidin-2-yl)propan-2-one], the IC50 was below 0.1 µM in assay [1] and 5 to 30 µM with NCI-H460 cells.

Take `N#Cc1cnc2c(c1)ncn2CC(=O)C[C@H]1NCCC[C@@H]1O` [Example 38, 3-(3-((2R,3S)-3-hydroxypiperidin-2-yl)-2-oxopropyl)-3H-imidazo[4,5-b]pyridine-6-carbonitrile]: the results for the IC50 (in assay [1]; with NCI-H460 cells) were 0.1 to 0.5 µM and at least 30 µM, respectively.

With `CN(C)Cc1nc2cc(Cl)c(Cl)cc2n1CC(=O)C[C@H]1NCCC[C@@H]1O` [Example 51, 1-(5,6-dichloro-2-((dimethylamino)methyl)-1H-benzo[d]imidazol-1-yl)-3-((2R,3S)-3-hydroxypiperidin-2-yl)propan-2-one], the IC50 in assay [1] was above 0.5 µM; with NCI-H460 cells, at least 30 µM.

Turning to `Cc1ccc2c(ncn2CC(=O)C[C@H]2NCCC[C@@H]2O)c1C` [Example 16, 1-(4,5-dimethyl-1H-benzo[d]imidazol-1-yl)-3-((2R,3S)-3-hydroxypiperidin-2-yl)propan-2-one], the results for the IC50 (in assay [1]; in the assay on NCI-H460 cells) were below 0.1 µM and 5 to 30 µM, respectively.

For `O=C(C[C@H]1NCCC[C@@H]1O)Cn1c(CO)nc2cc(Cl)c(Cl)cc21` [Example 87, 1-(5,6-dichloro-2-(hydroxymethyl)-1H-benzo[d]imidazol-1-yl)-3-((2R,3S)-3-hydroxypiperidin-2-yl)propan-2-one], the IC50 in assay [1] is below 0.1 µM; in the assay on NCI-H460 cells it was at most 5 µM.

Take `Cc1ccc2c(nc(CO)n2CC(=O)C[C@H]2NCCC[C@@H]2O)c1C` [Example 62, 1-(2-(hydroxymethyl)-4,5-dimethyl-1H-benzo[d]imidazol-1-yl)-3-((2R,3S)-3-hydroxypiperidin-2-yl)propan-2-one]: the 50% inhibitory concentration (IC50) in assay [1] is above 0.5 µM; with NCI-H460 cells it was at least 30 µM.

As for `Cc1ccc2c(ncn2CC(=O)C[C@H]2NCCC[C@@H]2O)c1Br` [Example 19, 1-(4-bromo-5-methyl-1H-benzo[d]imidazol-1-yl)-3-((2R,3S)-3-hydroxypiperidin-2-yl)propan-2-one], the values for the IC50 (in assay [1]; with NCI-H460 cells) were below 0.1 µM and 5 to 30 µM, respectively.

Turning to `O=C(C[C@H]1NCCC[C@@H]1O)Cn1cnc2c(F)c(F)ccc21` [Example 11, 1-(4,5-difluoro-1H-benzo[d]imidazol-1-yl)-3-((2R,3S)-3-hydroxypiperidin-2-yl)propan-2-one], the IC50 in assay [1] is 0.1 to 0.5 µM; in the assay with NCI-H460 cells, 5 to 30 µM.

In the case of `O=C(C[C@H]1NCCC[C@@H]1O)Cn1c(CO)nc2cc(OC(F)(F)F)ccc21` [Example 60, 1-(2-(hydroxymethyl)-5-(trifluoromethoxy)-1H-benzo[d]imidazol-1-yl)-3-((2R,3S)-3-hydroxypiperidin-2-yl)propan-2-one], the half-inhibitory concentration (IC50) was above 0.5 µM in assay [1] and at least 30 µM with NCI-H460 cells.

`O=C(C[C@H]1NCCC[C@@H]1O)Cn1cnc2nc(C(F)(F)F)ccc21` [Example 30, 1-((2R,3S)-3-hydroxypiperidin-2-yl)-3-(5-(trifluoromethyl)-1H-imidazo[4,5-b]pyridin-1-yl)propan-2-one]: the IC50 in assay [1] is above 0.5 µM; in the assay on NCI-H460 cells, at least 30 µM.

Turning to `O=C(C[C@H]1NCCC[C@@H]1O)Cn1cnc2ccc(C(F)(F)F)nc21` [Example 36, 1-((2R,3S)-3-hydroxypiperidin-2-yl)-3-(5-(trifluoromethyl)-3H-imidazo[4,5-b]pyridin-3-yl)propan-2-one], the IC50 in assay [1] was below 0.1 µM; in the assay on NCI-H460 cells, 5 to 30 µM.

Consider `OC(C[C@H]1NCCC[C@@H]1O)Cn1cnc2ccccc21` (stereo partly drawn) [Example 69, (2R,3S)-2-(3-(1H-benzo[d]imidazol-1-yl)-2-hydroxypropyl)piperidin-3-ol], for which the half-maximal inhibitory concentration (IC50) in assay [1] was above 0.5 µM; in the assay on NCI-H460 cells it was at least 30 µM.

On to `O=C(C[C@H]1NCCC[C@@H]1O)Cn1cnc2c(C(F)(F)F)c(F)ccc21` [Example 17, 1-(5-fluoro-4-(trifluoromethyl)-1H-benzo[d]imidazol-1-yl)-3-((2R,3S)-3-hydroxypiperidin-2-yl)propan-2-one], for which the IC50 in assay [1] was below 0.1 µM; in the assay with NCI-H460 cells it was 5 to 30 µM.

In the case of `O=C(C[C@H]1NCCC[C@@H]1O)Cn1cnc2cc(Br)ccc21` [Example 4, 1-(5-bromo-1H-benzo[d]imidazol-1-yl)-3-((2R,3S)-3-hydroxypiperidin-2-yl)propan-2-one], the IC50 in assay [1] was below 0.1 µM; in the assay on NCI-H460 cells, 5 to 30 µM.

Turning to `O=C(C[C@H]1NCCC[C@@H]1O)Cn1ccc2ncc(Br)cc21` [Example 94, 1-(6-bromo-1H-pyrrolo[3,2-b]pyridin-1-yl)-3-((2R,3S)-3-hydroxypiperidin-2-yl)propan-2-one], the IC50 in assay [1] is above 0.5 µM; in the assay with NCI-H460 cells, at least 30 µM.

As for `O=C(C[C@H]1NCCC[C@@H]1O)Cn1c(CO)nc2cc(Br)ccc21` [Example 57, 1-(5-bromo-2-(hydroxymethyl)-1H-benzo[d]imidazol-1-yl)-3-((2R,3S)-3-hydroxypiperidin-2-yl)propan-2-one], the IC50 in assay [1] fell in the range of 0.1 to 0.5 µM; in the assay on NCI-H460 cells, 5 to 30 µM.

As for `O=C(C[C@H]1NCCC[C@@H]1O)Cn1cnc2cncc(Br)c21` [Example 33, 1-(7-bromo-1H-imidazo[4,5-c]pyridin-1-yl)-3-((2R,3S)-3-hydroxypiperidin-2-yl)propan-2-one], the values for the IC50 (in assay [1]; in the assay on NCI-H460 cells) were below 0.1 µM and 5 to 30 µM, respectively.

As to `Cc1c(Br)cnc2c1ncn2CC(=O)C[C@H]1NCCC[C@@H]1O` [Example 40, 1-(6-bromo-7-methyl-3H-imidazo[4,5-b]pyridin-3-yl)-3-((2R,3S)-3-hydroxypiperidin-2-yl)propan-2-one], the IC50 is below 0.1 µM in assay [1] and at most 5 µM in the assay on NCI-H460 cells.

In the case of `CC(O)(C[C@H]1NCCC[C@@H]1O)Cn1cnc2cc(Cl)c(Cl)cc21` (stereo partly drawn) [Example 84, (2R,3S)-2-(3-(5,6-dichloro-1H-benzo[d]imidazol-1-yl)-2-hydroxy-2-methylpropyl)piperidin-3-ol], the IC50 in assay [1] was above 0.5 µM; with NCI-H460 cells, at least 30 µM.

With `CC(O)(C[C@H]1NCCC[C@@H]1O)Cn1cnc2ccccc21` (stereo partly drawn) [Example 80, (2R,3S)-2-(3-(1H-benzo[d]imidazol-1-yl)-2-hydroxy-2-methylpropyl)piperidin-3-ol], the 50% inhibitory concentration (IC50) is above 0.5 µM in assay [1] and at least 30 µM in the assay on NCI-H460 cells.
